Experimental data from patent publication US9328099B2, “Cyanomethylpyrazole carboxamides as janus kinase inhibitors” (Merck Sharp & Dohme Corp., priority 2011, dated 2016).

What was measured:
[1] = molecular target: JAK2 (Homo sapiens (Human), UniProt O60674); assay: Jak Biochemical HTRF Assay, JAK2; conditions: HTRF biochemical assay, GST-tagged catalytic domain; top concentration tested […]
Text: (§1) Jak Biochemical HTRF Assay Protocol
(§2) Subsequent reagent additions employed an Agilent Bravo.

[2] = molecular target: JAK1 (Homo sapiens (Human), UniProt P23458); assay: Jak Biochemical HTRF Assay, JAK1; conditions: HTRF biochemical assay, GST-tagged catalytic domain; top concentration tested […]; read-out: JAK1 IC50
Text: as §1, §2

JAK2, sequence (O60674 849-1124): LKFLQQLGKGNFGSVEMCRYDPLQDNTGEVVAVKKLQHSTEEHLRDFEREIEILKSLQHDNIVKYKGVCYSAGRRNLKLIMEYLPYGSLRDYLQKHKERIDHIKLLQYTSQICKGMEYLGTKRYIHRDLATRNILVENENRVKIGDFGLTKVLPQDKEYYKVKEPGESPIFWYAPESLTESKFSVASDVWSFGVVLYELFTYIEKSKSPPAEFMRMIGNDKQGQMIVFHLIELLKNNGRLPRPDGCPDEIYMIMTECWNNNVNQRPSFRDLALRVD
JAK1, sequence (P23458 875-1153): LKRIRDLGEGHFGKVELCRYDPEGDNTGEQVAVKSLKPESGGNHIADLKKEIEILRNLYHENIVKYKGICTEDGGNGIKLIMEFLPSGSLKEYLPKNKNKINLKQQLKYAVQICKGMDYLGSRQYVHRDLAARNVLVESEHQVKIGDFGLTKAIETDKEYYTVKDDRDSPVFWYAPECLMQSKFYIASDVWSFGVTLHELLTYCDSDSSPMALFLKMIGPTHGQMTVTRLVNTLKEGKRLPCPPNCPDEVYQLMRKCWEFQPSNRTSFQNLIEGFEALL

SMILES	IC50 [1] [nM]	IC50 [2] [nM]
CC(C)(C)OC(=O)N1CCC(CC#N)(n2cc(C(N)=O)c(Nc3cccc(-c4cccc(Cl)c4)c3)n2)CC1 [Example 15-8, tert-butyl 4-{4-carbamoyl-3-[(3′-chlorobiphenyl-3-yl)amino]-1H-pyrazol-1-yl}-4-(cyanomethyl)piperidine-1-carboxylate]	1480	161
CC(C)(C)OC(=O)N1CCC(CC#N)(n2cc(C(N)=O)c(Nc3cccc(-c4ccc5ccccc5c4)c3)n2)CC1 [Example 15-9, tert-butyl 4-{4-carbamoyl-3-[(3-naphthalen-2-ylphenyl)amino]-1H-pyrazol-1-yl}-4-(cyanomethyl)piperidine-1-carboxylate]	1480	644
CC(C)(C)OC(=O)N1CCC(CC#N)(n2cc(C(N)=O)c(Nc3cccc(-c4ccccc4F)c3)n2)CC1 [Example 15-10, tert-butyl 4-{4-carbamoyl-3-[(2′-fluorobiphenyl-3-yl)amino]-1H-pyrazol-1-yl}-4-(cyanomethyl)piperidine-1-carboxylate]	841	31
CC(C)(C)OC(=O)N1CCC(CC#N)(n2cc(C(N)=O)c(Nc3cccc(-c4ccccc4O)c3)n2)CC1 [Example 15-11, tert-butyl 4-{4-carbamoyl-3-[(2′-hydroxybiphenyl-3-yl)amino]-1H-pyrazol-1-yl}-4-(cyanomethyl)piperidine-1-carboxylate]	182	13
CC(C)(C)OC(=O)N1CCC(CC#N)(n2cc(C(N)=O)c(Nc3ccc(CC(=O)O)cc3)n2)CC1 [Example 18, [4-({1-[1-(tert-Butoxycarbonyl)-4-(cyanomethyl)piperidin-4-yl]-4-carbamoyl-1H-pyrazol-3-yl}amino)phenyl]acetic acid]	10	0.1
N#CCC1(n2cc(C(N)=O)c(Nc3ccccc3)n2)CN(CC(F)(F)F)C1 [Example 19, 1-[3-(Cyanomethyl)-1-(2,2,2-trifluoroethyl)azetidin-3-yl]-3-(phenylamino)-1H-pyrazole-4-carboxamide]	870	162
CN1CC(CC#N)(n2cc(C(N)=O)c(Nc3ccccc3)n2)C1 [Example 20, 1-[3-(Cyanomethyl)-1-methylazetidin-3-yl]-3-(phenylamino)-1H-pyrazole-4-carboxamide]	1480	358

Other lines, results leading:

IC50 [1] [nM]	IC50 [2] [nM]	SMILES
46	6	N#CCC1(n2cc(C(N)=O)c(Nc3ccccc3)n2)CCN(Cc2ccc(-c3ccccc3)cc2)CC1 [Example 21-1, 1-[1-(Biphenyl-4-ylmethyl)-4-(cyanomethyl)piperidin-4-yl]-3-(phenylamino)-1H-pyrazole-4-carboxamide]
11	3	N#CCC1(n2cc(C(N)=O)c(Nc3ccccc3)n2)CCN(Cc2cccnc2)CC1 [Example 21-2, 1-[4-(cyanomethyl)-1-(pyridin-3-ylmethyl)piperidin-4-yl]-3-(phenylamino)-1H-pyrazole-4-carboxamide]
243	29	N#CCC1(n2cc(C(N)=O)c(Nc3ccccc3)n2)CCN(Cc2ccc(C#N)cc2)CC1 [Example 21-4, 1-[1-(4-cyanobenzyl)-4-(cyanomethyl)piperidin-4-yl]-3-(phenylamino)-1H-pyrazole-4-carboxamide]
314	46	N#CCCCN1CCC(CC#N)(n2cc(C(N)=O)c(Nc3ccccc3)n2)CC1 [Example 21-5, 1-[4-(cyanomethyl)-1-(3-cyanopropyl)piperidin-4-yl]-3-(phenylamino)-1H-pyrazole-4-carboxamide]
55	3	N#CCC1(n2cc(C(N)=O)c(Nc3ccccc3)n2)CCN(Cc2ccccc2Cl)CC1 [Example 21-6, 1-[1-(2-chlorobenzyl)-4-(cyanomethyl)piperidin-4-yl]-3-(phenylamino)-1H-pyrazole-4-carboxamide]
135	11	Cc1ccc(CN2CCC(CC#N)(n3cc(C(N)=O)c(Nc4ccccc4)n3)CC2)cc1 [Example 21-7, 1-[4-(cyanomethyl)-1-(4-methylbenzyl)piperidin-4-yl]-3-(phenylamino)-1H-pyrazole-4-carboxamide]
1300	89	N#CCC1(n2cc(C(N)=O)c(Nc3ccccc3)n2)CCN(Cc2cccc3ccccc23)CC1 [Example 21-8, 1-[4-(cyanomethyl)-1-(naphthalene-1-ylmethyl)piperidin-4-yl]-3-(phenylamino)-1H-pyrazole-4-carboxamide]
319	15	N#CCC1(n2cc(C(N)=O)c(Nc3ccccc3)n2)CCN(CC2CCCCC2)CC1 [Example 21-9, 1-[4-(cyanomethyl)-1-(cyclohexylmethyl)piperidin-4-yl]-3-(phenylamino)-1H-pyrazole-4-carboxamide]
78	8	N#CCC1(n2cc(C(N)=O)c(Nc3ccccc3)n2)CCN(Cc2ccc3c(c2)OCO3)CC1 [Example 21-10, 1-[1-(1,3-benzodioxol-5-ylmethyl)-4-(cyanomethyl)piperidin-4-yl]-3-(phenylamino)-1H-pyrazole-4-carboxamide]
6	0.3	N#CCC1(n2cc(C(N)=O)c(Nc3ccccc3)n2)CCN(Cc2cccc(O)c2)CC1 [Example 21-11, 1-[4-(cyanomethyl)-1-(3-hydroxybenzyl)piperidin-4-yl]-3-(phenylamino)-1H-pyrazole-4-carboxamide]
128	7	CC(=O)Nc1ccc(CN2CCC(CC#N)(n3cc(C(N)=O)c(Nc4ccccc4)n3)CC2)cc1 [Example 21-12, 1-{1-[4-(acetylamino)benzyl]-4-(cyanomethyl)piperidin-4-yl}-3-(phenylamino)-1H-pyrazole-4-carboxamide]
297	24	COc1ccc2cc(CN3CCC(CC#N)(n4cc(C(N)=O)c(Nc5ccccc5)n4)CC3)ccc2c1 [Example 21-13, 1-{4-(cyanomethyl)-1-[(6-methoxynaphthalen-2-yl)methyl]piperidin-4-yl}-3-(phenylamino)-1H-pyrazole-4-carboxamide]
224	18	N#CCC1(n2cc(C(N)=O)c(Nc3ccccc3)n2)CCN(Cc2c(Cl)cccc2Cl)CC1 [Example 21-14, 1-[4-(cyanomethyl)-1-(2,6-dichlorobenzyl)piperidin-4-yl]-3-(phenylamino)-1H-pyrazole-4-carboxamide]
242	12	CSCCCN1CCC(CC#N)(n2cc(C(N)=O)c(Nc3ccccc3)n2)CC1 [Example 21-15, 1-{4-(cyanomethyl)-1-[3-(methylsulfanyl)propyl]piperidin-4-yl}-3-(phenylamino)-1H-pyrazole-4-carboxamide]
842	69	CCOc1ccccc1CN1CCC(CC#N)(n2cc(C(N)=O)c(Nc3ccccc3)n2)CC1 [Example 21-16, 1-[4-(cyanomethyl)-1-(2-ethoxybenzyl)piperidin-4-yl]-3-(phenylamino)-1H-pyrazole-4-carboxamide]
208	19	N#CCC1(n2cc(C(N)=O)c(Nc3ccccc3)n2)CCN(C/C=C/c2ccccc2)CC1 [Example 21-17, 1-{4-(cyanomethyl)-1-[(2E)-3-phenylprop-2-en-1-yl]piperidin-4-yl}-3-(phenylamino)-1H-pyrazole-4-carboxamide]
